Results: PMC4190408, “Acylation of Glucagon-Like Peptide-2: Interaction with Lipid Membranes and In Vitro Intestinal Permeability” (PLoS ONE, 2014)
Side chains are listed from the residue outwards. Peptide text beside a SMILES is read from it. * marks the point of attachment. Palmitoyl = CCCCCCCCCCCCCCCC(=O)*; Lauroyl = CCCCCCCCCCCC(=O)*; Octanoyl = CCCCCCCC(=O)*; βAla = NCCC(=O)O

System: Caco-2 cells
Test: Translocation across Caco-2 cell monolayers
Type: in vitro ADME, human
Conditions: for Caco-2 translocation relative to native GLP-2 (in words): Caco-2 monolayers
Description: Caco-2 cells (passage 40–65) were cultured routinely in DMEM with 10% (v/v) FBS, 1% (v/v) nonessential amino acids, 100 U penicillin, 0.1 mg/mL streptomycin and 2 mM L-glutamine. The Caco-2 cells were seeded at a density of [drawing 60] cells/well on 12 well Transwells plates and grown for 14–16 days in DMEM with media change every second day. The cell layer was confirmed to consist of a single monolayer of cells by fixing and staining the cell layer, and visualizing by fluorescence microscopy.
Before transport experiments, DMEM medium was changed to HBSS buffer (containing 10 mM HEPES and 0.1% (w/v) OVA; 0.4 mL apical side and 1 mL basolateral) and left to equilibrate for 60 minutes. Buffer was replaced apically by 0.4 mL test solution at time zero, and the plates were incubated at [drawing 61] and 5% [drawing 62] with gentle shaking. Test solutions contained 100 [drawing 63] peptide and 0.8 [drawing 64] [ [drawing 65] ]mannitol (a permeability marker). Basolateral samples of 200 [drawing 66] were taken every 15 minutes for 1 hour, and replaced by buffer. The apical test solution and basolateral samples were diluted and analyzed for peptide content with the luciferase assay and for [ [drawing 67] ]mannitol content in a scintillation counter (Packard TopCount), after mixing 1∶1 with scintillation fluid.
The integrity of cell monolayers before, during, and after experiments was verified by measuring the translocation of radioactively labelled mannitol and the transepithelial electrical resistance (TEER), using a Milicell ERS-2 epithelial volt-ohm meter (Millipore, USA). Mannitol translocation and TEER values were not affected by addition of peptide or analogues compared to buffer.
The Caco-2 translocation of peptide or mannitol over Caco-2 layers is expressed as the apparent permeability ( [drawing 72] ), given by: [drawing 73] (6) where [drawing 74] is the steady-state flux of peptide (pmol/s), [drawing 75] is the surface area of the cell monolayer (1.12 [drawing 76] ), and [drawing 77] is the initial sample concentration added to the cell layer.

[1] = apical to basolateral, 1 hour, no enhancer, 3 separate experiments each with 4 repeats

Caco-2 translocation in the presence of SDS (in words) (Caco-2, apical to basolateral, SDS)	increase in peptide permeability with SDS compared to peptide alone (Caco-2, apical to basolateral, SDS (transcellular enhancer), 2 separate experiments each with 4 repeats)	Caco-2 translocation with absorption enhancer, times the native peptide (Caco-2, apical to basolateral, in the presence of EGTA (paracellular) or SDS (transcellular), 2 separate experiments each with 4 repeats)	increase in Caco-2 translocation compared to native GLP-2 (factor) (Caco-2 monolayers 14-16 days, apical to basolateral, 100 (unit is a drawing) peptide, HBSS with 10 mM HEPES and 0.1% OVA, 1 hour, luciferase assay read-out, no enhancer, 3 separate experiments each with 4 repeats)	Compound	Caco-2 translocation relative to native GLP-2 (in words) [1]
remains lower than for the c12 peptide	the increase is greater			CCCCCCCCCCCCCCCC(=O)NCCC(=O)NCCCC[C@H](NC(=O)[C@H](CC(N)=O)NC(=O)[C@H](CC(=O)O)NC(=O)[C@H](CC(C)C)NC(=O)[C@@H](NC(=O)[C@@H](NC(=O)[C@H](CC(N)=O)NC(=O)[C@H](CCSC)NC(=O)[C@H](CCC(=O)O)NC(=O)[C@H](CC(=O)O)NC(=O)[C@H](CO)NC(=O)[C@H](Cc1ccccc1)NC(=O)[C@H](CO)NC(=O)CNC(=O)[C@H](CCC(=O)O)NC(=O)[C@H](C)NC(=O)[C@@H](N)Cc1c[nH]cn1)[C@@H](C)O)[C@@H](C)CC)C(=O)N[C@@H](C)C(=O)N[C@@H](C)C(=O)N[C@@H](CCCNC(=N)N)C(=O)N[C@@H](CC(=O)O)C(=O)N[C@@H](Cc1ccccc1)C(=O)N[C@H](C(=O)N[C@@H](CC(N)=O)C(=O)N[C@@H](Cc1c[nH]c2ccccc12)C(=O)N[C@@H](CC(C)C)C(=O)N[C@H](C(=O)N[C@@H](CCC(N)=O)C(=O)N[C@H](C(=O)N[C@@H](CCCNC(=N)N)C(=O)N[C@H](C(=O)N[C@H](C(=O)N[C@@H](CC(=O)O)C(=O)O)[C@@H](C)O)[C@@H](C)CC)[C@@H](C)O)[C@@H](C)CC)[C@@H](C)CC [c16] (H-HAEGSFSDEMNTILDNK([βAla-Palmitoyl])AARDFINWLIQTRITD-OH)	decreases it slightly
				CCCCCCCC(=O)NCCC(=O)NCCCC[C@H](NC(=O)[C@H](CC(N)=O)NC(=O)[C@H](CC(=O)O)NC(=O)[C@H](CC(C)C)NC(=O)[C@@H](NC(=O)[C@@H](NC(=O)[C@H](CC(N)=O)NC(=O)[C@H](CCSC)NC(=O)[C@H](CCC(=O)O)NC(=O)[C@H](CC(=O)O)NC(=O)[C@H](CO)NC(=O)[C@H](Cc1ccccc1)NC(=O)[C@H](CO)NC(=O)CNC(=O)[C@H](CCC(=O)O)NC(=O)[C@H](C)NC(=O)[C@@H](N)Cc1c[nH]cn1)[C@@H](C)O)[C@@H](C)CC)C(=O)N[C@@H](C)C(=O)N[C@@H](C)C(=O)N[C@@H](CCCNC(=N)N)C(=O)N[C@@H](CC(=O)O)C(=O)N[C@@H](Cc1ccccc1)C(=O)N[C@H](C(=O)N[C@@H](CC(N)=O)C(=O)N[C@@H](Cc1c[nH]c2ccccc12)C(=O)N[C@@H](CC(C)C)C(=O)N[C@H](C(=O)N[C@@H](CCC(N)=O)C(=O)N[C@H](C(=O)N[C@@H](CCCNC(=N)N)C(=O)N[C@H](C(=O)N[C@H](C(=O)N[C@@H](CC(=O)O)C(=O)O)[C@@H](C)O)[C@@H](C)CC)[C@@H](C)O)[C@@H](C)CC)[C@@H](C)CC [c8] (H-HAEGSFSDEMNTILDNK([βAla-Octanoyl])AARDFINWLIQTRITD-OH)	increase the translocation relative to native GLP-2
		approximately 1.5	~1.5	CCCCCCCCCCCC(=O)NCCC(=O)NCCCC[C@H](NC(=O)[C@H](CC(N)=O)NC(=O)[C@H](CC(=O)O)NC(=O)[C@H](CC(C)C)NC(=O)[C@@H](NC(=O)[C@@H](NC(=O)[C@H](CC(N)=O)NC(=O)[C@H](CCSC)NC(=O)[C@H](CCC(=O)O)NC(=O)[C@H](CC(=O)O)NC(=O)[C@H](CO)NC(=O)[C@H](Cc1ccccc1)NC(=O)[C@H](CO)NC(=O)CNC(=O)[C@H](CCC(=O)O)NC(=O)[C@H](C)NC(=O)[C@@H](N)Cc1c[nH]cn1)[C@@H](C)O)[C@@H](C)CC)C(=O)N[C@@H](C)C(=O)N[C@@H](C)C(=O)N[C@@H](CCCNC(=N)N)C(=O)N[C@@H](CC(=O)O)C(=O)N[C@@H](Cc1ccccc1)C(=O)N[C@H](C(=O)N[C@@H](CC(N)=O)C(=O)N[C@@H](Cc1c[nH]c2ccccc12)C(=O)N[C@@H](CC(C)C)C(=O)N[C@H](C(=O)N[C@@H](CCC(N)=O)C(=O)N[C@H](C(=O)N[C@@H](CCCNC(=N)N)C(=O)N[C@H](C(=O)N[C@H](C(=O)N[C@@H](CC(=O)O)C(=O)O)[C@@H](C)O)[C@@H](C)CC)[C@@H](C)O)[C@@H](C)CC)[C@@H](C)CC [c12] (H-HAEGSFSDEMNTILDNK([βAla-Lauroyl])AARDFINWLIQTRITD-OH)	increase the translocation relative to native GLP-2
